ChEMBL document CHEMBL2074520, “Characterization of the high-affinity monocarboxylate transporter MCT2 in Xenopus laevis oocytes” (Biochem J, 1999)

Assays:
[1] = target: T1, Monocarboxylate transporter 2 (Rattus norvegicus) (UniProt Q63344); test: (§1) TP_TRANSPORTER: inhibition of lactate uptake in Xenopus laevis oocytes; format: functional, cell-based; parameters: concentration or dose not given beside the values; conditions: Oocyte
T1 sequence (whole entry): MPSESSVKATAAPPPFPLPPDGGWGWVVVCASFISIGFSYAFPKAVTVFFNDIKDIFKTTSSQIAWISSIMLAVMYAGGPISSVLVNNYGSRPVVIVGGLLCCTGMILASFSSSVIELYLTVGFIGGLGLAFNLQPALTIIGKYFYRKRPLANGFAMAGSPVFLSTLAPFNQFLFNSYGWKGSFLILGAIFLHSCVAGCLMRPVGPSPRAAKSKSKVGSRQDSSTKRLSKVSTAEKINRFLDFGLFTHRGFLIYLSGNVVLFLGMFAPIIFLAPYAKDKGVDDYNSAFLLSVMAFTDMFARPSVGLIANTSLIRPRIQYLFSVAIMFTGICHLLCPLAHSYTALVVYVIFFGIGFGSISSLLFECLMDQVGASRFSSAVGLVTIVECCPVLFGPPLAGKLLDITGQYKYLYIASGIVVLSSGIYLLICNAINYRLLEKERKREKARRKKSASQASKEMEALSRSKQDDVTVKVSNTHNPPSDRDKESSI

[2] = target: T2, Monocarboxylate transporter 1 (Rattus norvegicus) (UniProt P53987); test: as §1; format: functional, cell-based; parameters: concentration or dose not given beside the values; conditions: Oocyte
T2 sequence (whole entry): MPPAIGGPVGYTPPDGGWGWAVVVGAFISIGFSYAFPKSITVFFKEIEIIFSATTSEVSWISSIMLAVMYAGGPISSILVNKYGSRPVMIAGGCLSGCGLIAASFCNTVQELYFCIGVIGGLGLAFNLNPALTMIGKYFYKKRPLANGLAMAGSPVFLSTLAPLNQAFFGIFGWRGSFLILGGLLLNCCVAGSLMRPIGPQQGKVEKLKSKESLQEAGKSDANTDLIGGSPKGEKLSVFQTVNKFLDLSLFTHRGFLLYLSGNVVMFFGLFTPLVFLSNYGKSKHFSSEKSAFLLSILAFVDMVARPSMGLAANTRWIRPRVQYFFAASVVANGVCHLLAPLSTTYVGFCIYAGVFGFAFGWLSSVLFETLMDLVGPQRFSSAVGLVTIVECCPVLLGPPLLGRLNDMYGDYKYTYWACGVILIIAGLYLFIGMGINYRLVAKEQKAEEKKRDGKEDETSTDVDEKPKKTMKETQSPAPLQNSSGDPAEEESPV

[3] = target: T3, Monocarboxylate transporter 1 (Rattus norvegicus, UniProt P53987); test: as §1; format: functional, cell-based, Oocyte
T3 sequence (P53987 whole entry): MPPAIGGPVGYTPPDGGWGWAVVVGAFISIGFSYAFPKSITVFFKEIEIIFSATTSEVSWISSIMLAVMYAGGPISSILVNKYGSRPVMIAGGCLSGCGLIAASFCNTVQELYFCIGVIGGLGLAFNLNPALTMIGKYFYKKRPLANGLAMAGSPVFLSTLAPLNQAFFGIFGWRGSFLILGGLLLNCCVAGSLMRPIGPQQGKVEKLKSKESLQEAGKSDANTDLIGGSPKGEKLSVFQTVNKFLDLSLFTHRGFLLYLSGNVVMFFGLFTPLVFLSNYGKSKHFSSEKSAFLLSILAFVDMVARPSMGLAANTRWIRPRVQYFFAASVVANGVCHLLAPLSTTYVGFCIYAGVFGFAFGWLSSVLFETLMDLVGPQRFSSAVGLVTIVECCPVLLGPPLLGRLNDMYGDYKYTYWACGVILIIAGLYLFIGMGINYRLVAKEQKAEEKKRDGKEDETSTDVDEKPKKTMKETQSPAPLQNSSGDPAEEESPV

[4] = target: T4, Monocarboxylate transporter 2 (Rattus norvegicus, UniProt Q63344); test: as §1; format: functional, cell-based, Oocyte
T4 sequence (Q63344 whole entry): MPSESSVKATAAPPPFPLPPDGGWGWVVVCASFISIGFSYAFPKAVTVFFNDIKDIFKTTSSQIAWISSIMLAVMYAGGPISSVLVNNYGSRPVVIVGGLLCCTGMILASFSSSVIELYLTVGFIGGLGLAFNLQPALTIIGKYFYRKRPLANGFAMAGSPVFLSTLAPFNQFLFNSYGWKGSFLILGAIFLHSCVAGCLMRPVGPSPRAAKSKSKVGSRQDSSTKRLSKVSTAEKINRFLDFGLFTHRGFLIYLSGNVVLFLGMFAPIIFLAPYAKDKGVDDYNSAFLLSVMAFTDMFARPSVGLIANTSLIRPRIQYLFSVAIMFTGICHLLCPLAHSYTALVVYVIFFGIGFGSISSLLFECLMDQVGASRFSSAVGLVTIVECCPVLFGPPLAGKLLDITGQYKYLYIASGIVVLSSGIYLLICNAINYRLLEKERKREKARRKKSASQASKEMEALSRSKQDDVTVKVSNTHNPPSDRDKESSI

[5] = target: Monocarboxylate transporter 2 (Rattus norvegicus) (UniProt Q63344); test: as §1; format: functional, cell-based; parameters: concentration or dose not given beside the values; conditions: Oocyte; remark: listed apart in the source
[6] = target: Monocarboxylate transporter 1 (Rattus norvegicus) (UniProt P53987); test: as §1; format: functional, cell-based; parameters: concentration or dose not given beside the values; conditions: Oocyte; remark: listed apart in the source
[7] = compound: C[C@@H](O)C(=O)O; test: as §1; format: functional, cell-based; conditions: Oocyte

O=C(O)c1cccnc1Nc1cccc(C(F)(F)F)c1
Activity [1]: 14%
Activity [2]: 36%

CCCCCC#CCC#CCC#CCC#CCCCC(=O)O
Activity [1]: 125%
Activity [2]: 117%

N#C/C(=C\c1ccc(O)cc1)C(=O)O [alpha-CYANO-4-HYDROXYCINNAMIC ACID]
IC50 [3]: 425 µM
IC50 [4]: 24 µM
Activity [1]: 34%
Activity [2]: 74.4%

CC(O)CC(=O)O (racemic) [3-HYDROXYBUTYRIC ACID, (+/-)-]
Ki [4]: 1200 µM

O=C(O)c1ccc(-c2ccccc2)cc1
Activity [1]: 74%
Activity [2]: 88%

O=C(O)C(O)c1ccccc1 (stereo not drawn)
Activity [1]: 117%
Activity [2]: 97%

c1ccc(CSSCc2ccccc2)cc1
Activity [1]: 44%
Activity [2]: 99%

O=C(O)c1cc([N+](=O)[O-])ccc1NCCCc1ccccc1
Activity [1]: 25%
Activity [2]: 54%

MERCURIC CHLORIDE
Activity [5]: 54%
Activity [6]: 37%

CC(=O)CC(=O)O [ACETOACETIC ACID]
Ki [4]: 800 µM

CC(C)CC(=O)C(=O)O [2-Oxoisohexanoate]
Ki [4]: 100 µM

O=C(O)c1c2ccccc2cc2ccccc12
Activity [1]: 104%
Activity [2]: 102%

CC(C)C(=O)C(=O)O [2-Oxoisovalerate]
Ki [4]: 300 µM

p-Chloromercuribenzenesulfonate
Activity [5]: 118%
Activity [6]: 9%

CC(=O)Oc1ccccc1O
Activity [1]: 105%
Activity [2]: 92%

O=C(CCc1ccc(O)cc1)c1c(O)cc(O)cc1O [PHLORETIN]
IC50 [3]: 28 µM
IC50 [4]: 14 µM
Activity [1]: 3%
Activity [2]: 14%

O=[N+]([O-])c1ccc(/C=C/c2ccc([N+](=O)[O-])cc2S(=O)(=O)O)c(S(=O)(=O)O)c1
Activity [1]: 119%
Activity [2]: 112%

O=C(O)CC12CC3CC(CC(C3)C1)C2
Activity [1]: 113%
Activity [2]: 96%

CCCN(CCC)S(=O)(=O)c1ccc(C(=O)O)cc1
Activity [1]: 88%
Activity [2]: 110%

CC(=O)C(=O)O [PYRUVATE]
Ki [4]: 80 µM

O=c1c(O)c(-c2ccc(O)c(O)c2)oc2cc(O)cc(O)c12 [QUERCETIN]
IC50 [3]: 14 µM
IC50 [4]: 5 µM
Activity [1]: 17%
Activity [2]: 11%

CCc1oc2ccccc2c1C(=O)c1cc(Br)c(O)c(Br)c1 [BENZBROMARONE]
IC50 [3]: 22 µM
IC50 [4]: 9 µM
Activity [1]: 12%
Activity [2]: 19%

B1: Monocarboxylate transporter 2 (Rattus norvegicus), Q63344 (protein)
chain: MPSESSVKATAAPPPFPLPPDGGWGWVVVCASFISIGFSYAFPKAVTVFFNDIKDIFKTTSSQIAWISSIMLAVMYAGGPISSVLVNNYGSRPVVIVGGLLCCTGMILASFSSSVIELYLTVGFIGGLGLAFNLQPALTIIGKYFYRKRPLANGFAMAGSPVFLSTLAPFNQFLFNSYGWKGSFLILGAIFLHSCVAGCLMRPVGPSPRAAKSKSKVGSRQDSSTKRLSKVSTAEKINRFLDFGLFTHRGFLIYLSGNVVLFLGMFAPIIFLAPYAKDKGVDDYNSAFLLSVMAFTDMFARPSVGLIANTSLIRPRIQYLFSVAIMFTGICHLLCPLAHSYTALVVYVIFFGIGFGSISSLLFECLMDQVGASRFSSAVGLVTIVECCPVLFGPPLAGKLLDITGQYKYLYIASGIVVLSSGIYLLICNAINYRLLEKERKREKARRKKSASQASKEMEALSRSKQDDVTVKVSNTHNPPSDRDKESSI
Km [7]: 740 µM
